Results taken from patent US20230192705A1, “SHP2 INHIBITORS, COMPOSITIONS AND USES THEREOF” (Betta Pharmaceuticals Co., Ltd, priority 2020, published 2023).
pIC50: −log10 of the molar value.

Molecular target: T1, SHP2 (Homo sapiens, UniProt Q06124)
T1 sequence (Q06124 1-593): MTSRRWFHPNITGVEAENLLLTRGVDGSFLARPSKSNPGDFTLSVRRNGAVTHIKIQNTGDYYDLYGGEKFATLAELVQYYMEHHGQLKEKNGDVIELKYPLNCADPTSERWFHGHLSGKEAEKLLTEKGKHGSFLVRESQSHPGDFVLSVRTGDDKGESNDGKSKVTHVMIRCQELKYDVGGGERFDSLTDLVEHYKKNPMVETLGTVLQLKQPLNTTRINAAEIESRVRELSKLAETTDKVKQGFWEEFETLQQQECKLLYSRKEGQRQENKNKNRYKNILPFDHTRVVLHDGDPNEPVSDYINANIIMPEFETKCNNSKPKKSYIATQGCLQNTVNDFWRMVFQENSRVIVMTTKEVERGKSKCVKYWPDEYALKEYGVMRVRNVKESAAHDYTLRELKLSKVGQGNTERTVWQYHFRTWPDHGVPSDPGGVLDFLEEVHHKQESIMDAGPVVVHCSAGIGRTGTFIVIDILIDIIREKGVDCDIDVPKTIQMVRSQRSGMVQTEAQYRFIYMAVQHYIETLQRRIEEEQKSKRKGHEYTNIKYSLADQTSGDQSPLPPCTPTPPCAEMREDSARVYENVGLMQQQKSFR
Assay: SHP2 allosteric inhibitor enzyme activity assay (DiFMUP fluorescence)
Format: biochemical
Settings: class symbols
In short: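 SHP2 activated by 0.5 μM IRS1_pY1172(dPEG8)pY1222 peptide, 0.2 ng enzyme per well, 1 h at room temperature with compound (1 μM top, 3-fold series), then DiFMUP substrate 1 h. Buffer: 60 mM HEPES, 75 mM NaCl, 75 mM KCl, 0.05% BRIJ-35, 1 mM EDTA, 5 mM DTT. Fluorescence ex 340/em 450 nm; IC50 by variable-slope fit.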

pIC50	SMILES
≥ 7.70	CSc1ccc2c(c1)[C@@H](N)C1(CCN(c3nc4[nH]nc(C5(c6ccccc6)CC5)c4c(=O)[nH]3)CC1)C2 [Example 196, (S)-6-(1-amino-6-(methylthio)-1,3-dihydrospiro[indene-2,4′-piperidin]-1′-yl)-3-(1-phenylcyclopropyl)-1,5-dihydro-4H-pyrazolo[3,4-d]pyrimidin-4-one]
≥ 7.70	N[C@@H]1c2ccccc2CC12CCN(c1nc3[nH]nc(C4(c5ncco5)CC4)c3c(=O)[nH]1)CC2 [Example 243, (S)-6-(1-amino-1,3-dihydrospiro[indene-2,4′-piperidin]-1′-yl)-3-(1-(oxazol-2-yl)cyclopropyl)-1,5-dihydro-4H-pyrazolo[3,4-d]pyrimidin-4-one]
7.22 to 7.70	C[C@@H]1OCC2(CCN(c3nc4[nH]nc(C5(c6cccc(O)c6)CC5)c4c(=O)[nH]3)CC2)[C@@H]1N [Example 310, 6-((3S,4S)-4-amino-3-methyl-2-oxa-8-azaspiro[4.5]decan-8-yl)-3-(1-(3-hydroxyphenyl)cyclopropyl)-1,5-dihydro-4H-pyrazolo[3,4-d]pyrimidin-4-one]
≥ 7.70	Cc1snnc1C1(c2n[nH]c3nc(N4CCC5(CC4)Cc4ccccc4[C@H]5N)[nH]c(=O)c23)CC1 [Example 241, (S)-6-(1-amino-1,3-dihydrospiro[indene-2,4′-piperidin]-1′-yl)-3-(1-(5-methyl-1,2,3-thiadiazol-4-yl)cyclopropyl)-1,5-dihydro-4H-pyrazolo[3,4-d]pyrimidin-4-one]
< 7.22	COc1cc(F)cc(C2(c3n[nH]c4nc(N5CCC6(CC5)CO[C@@H](C)[C@H]6N)[nH]c(=O)c34)CC2)c1 [Example 288, 6-((3S,4S)-4-amino-3-methyl-2-oxa-8-azaspiro[4.5]decan-8-yl)-3-(1-(3-fluoro-5-methoxyphenyl)cyclopropyl)-1,5-dihydro-4H-pyrazolo[3,4-d]pyrimidin-4-one]
< 7.22	C[C@@H]1OCC2(CCN(c3cnc(C4(c5ccccc5)CC4)cn3)CC2)[C@@H]1N [Example 258, (3S,4S)-3-methyl-8-(5-(1-phenylcyclopropyl)pyrazin-2-yl)-2-oxa-8-azaspiro[4.5]decan-4-amine]
≥ 7.70	N[C@@H]1c2ccccc2CC12CCN(c1nc3[nH]nc(C4=CCNc5ccccc54)c3c(=O)[nH]1)CC2 [Example 177, (S)-6-(1-amino-1,3-dihydrospiro[indene-2,4′-piperidin]-1′-yl)-3-(1,2-dihydroquinolin-4-yl)-1,5-dihydro-4H-pyrazolo[3,4-d]pyrimidin-4-one]
≥ 7.70	N[C@@H]1c2ccccc2CC12CCN(c1nc3[nH]nc(C4=C(F)CCc5nc(C(F)(F)F)ccc54)c3c(=O)[nH]1)CC2 [Example 187, (S)-6-(1-amino-1,3-dihydrospiro[indene-2,4′-piperidin]-1′-yl)-3-(6-fluoro-2-(trifluoromethyl)-7,8-dihydroquinolin-5-yl)-1,5-dihydro-4H-pyrazolo[3,4-d]pyrimidin-4-one]
≥ 7.70	CC1(C)NC=C(c2n[nH]c3nc(N4CCC5(CC4)Cc4ccccc4[C@H]5N)[nH]c(=O)c23)c2ccccc21 [Example 179, (S)-6-(1-amino-1,3-dihydrospiro[indene-2,4′-piperidin]-1′-yl)-3-(1,1-dimethyl-1,2-dihydroisoquinolin-4-yl)-1,5-dihydro-4H-pyrazolo[3,4-d]pyrimidin-4-one]
7.22 to 7.70	Cc1ccccc1C1(c2n[nH]c3nc(N4CCC5(CC4)CO[C@@H](C)[C@H]5N)[nH]c(=O)c23)CC1 [Example 302, 6-((3S,4S)-4-amino-3-methyl-2-oxa-8-azaspiro[4.5]decan-8-yl)-3-(1-(o-tolyl)cyclopropyl)-1,5-dihydro-4H-pyrazolo[3,4-d]pyrimidin-4-one]
7.22 to 7.70	C[C@@H]1OCC2(CCN(c3nc4[nH]nc(C5(c6ccc7ocnc7c6)CC5)c4c(=O)[nH]3)CC2)[C@@H]1N [Example 287, 6-((3S,4S)-4-amino-3-methyl-2-oxa-8-azaspiro[4.5]decan-8-yl)-3-(1-(benzo[d]oxazol-5-yl)cyclopropyl)-1,5-dihydro-4H-pyrazolo[3,4-d]pyrimidin-4-one]
< 7.22	C[C@@H]1OCC2(CCN(C3=NC(N)=C(C4(c5ccccc5)CC4)C4=NCCCN43)CC2)[C@@H]1N [Example 265, (3S,4S)-8-(8-amino-9-(1-phenylcyclopropyl)-3,4-dihydro-2H-pyrimido[1,6-a]pyrimidin-6-yl)-3-methyl-2-oxa-8-azaspiro[4.5]decan-4-amine]

More lines, now with the values behind:

SMILES	pIC50
Cn1ccc(-c2cc(C3(c4n[nH]c5nc(N6CCC7(CC6)Cc6ccccc6[C@H]7N)[nH]c(=O)c45)CC3)ccn2)n1 [Example 88, (S)-6-(1-amino-1,3-dihydrospiro[indene-2,4′-piperidin]-1′-yl)-3-(1-(2-(1-methyl-1H-pyrazol-3-yl)pyridin-4-yl)cyclopropyl)-1,5-dihydro-4H-pyrazolo[3,4-d]pyrimidin-4-one]	≥ 7.70
Cn1ccc(C2(c3n[nH]c4nc(N5CCC6(CC5)Cc5ccccc5[C@H]6N)[nH]c(=O)c34)CC2)c(Cl)c1=O [Example 73, (S)-6-(1-amino-1,3-dihydrospiro[indene-2,4′-piperidin]-1′-yl)-3-(1-(3-chloro-1-methyl-2-oxo-1,2-dihydropyridin-4-yl)cyclopropyl)-1,5-dihydro-4H-pyrazolo[3,4-d]pyrimidin-4-one]	≥ 7.70
N[C@@H]1c2ccccc2CC12CCN(c1nc3[nH]nc(C4(c5cccs5)CCC4)c3c(=O)[nH]1)CC2 [Example 94, (S)-6-(1-amino-1,3-dihydrospiro[indene-2,4′-piperidin]-1′-yl)-3-(1-(thiophen-2-yl)cyclobutyl)-1,5-dihydro-4H-pyrazolo[3,4-d]pyrimidin-4-one]	≥ 7.70
N[C@@H]1c2ccccc2CC12CCN(c1nc3[nH]nc(C4(c5ccccc5OC(F)(F)F)CC4)c3c(=O)[nH]1)CC2 [Example 16, (S)-6-(1-amino-1,3-dihydrospiro[indene-2,4′-piperidin]-1′-yl)-3-(1-(2-(trifluoromethoxy)phenyl)cyclo-propyl)-1,5-dihydro-4H-pyrazolo[3,4-d]pyrimidin-4-one]	≥ 7.70
CC1(C)C=C(c2n[nH]c3nc(N4CCC5(CC4)Cc4ccccc4[C@H]5N)[nH]c(=O)c23)c2cnn(CC(F)(F)F)c2C1 [Example 151, (S)-6-(1-amino-1,3-dihydrospiro[indene-2,4′-piperidin]-1′-yl)-3-(6,6-dimethyl-l-(2,2,2-trifluoroethyl)-6,7-dihydro-1H-indazol-4-yl)-1,5-dihydro-4H-pyrazolo[3,4-d]pyrimidin-4-one]	≥ 7.70
Cn1ncc2c1CCC=C2c1n[nH]c2nc(N3CCC4(CC3)Cc3ccccc3[C@H]4N)[nH]c(=O)c12 [Example 131, (S)-6-(1-amino-1,3-dihydrospiro[indene-2,4′-piperidin]-1′-yl)-3-(1-methyl-6,7-dihydro-1H-indazol-4-yl)-1,5-dihydro-4H-pyrazolo[3,4-d]pyrimidin-4-one]	≥ 7.70
COc1cccc(C2(c3n[nH]c4nc(N5CCC6(CC5)Cc5ccccc5[C@H]6N)[nH]c(=O)c34)CCC2)c1 [Example 95, (S)-6-(1-amino-1,3-dihydrospiro[indene-2,4′-piperidin]-1′-yl)-3-(1-(3-methoxyphenyl)cyclobutyl)-1,5-dihydro-4H-pyrazolo[3,4-d]pyrimidin-4-one]	≥ 7.70
Nc1cccc(C2(c3n[nH]c4nc(N5CCC6(CC5)Cc5ccccc5[C@H]6N)[nH]c(=O)c34)CC2)c1 [Example 43, (S)-6-(1-amino-1,3-dihydrospiro[indene-2,4′-piperidin]-1′-yl)-3-(1-(3-aminophenyl)cyclopropyl)-1,5-dihydro-4H-pyrazolo[3,4-d]pyrimidin-4-one]	≥ 7.70
N[C@@H]1c2ccccc2CC12CCN(c1nc3[nH]nc(C4(c5ccccc5C(F)(F)F)CC4)c3c(=O)[nH]1)CC2 [Example 15, (S)-6-(1-amino-1,3-dihydrospiro[indene-2,4′-piperidin]-1′-yl)-3-(1-(2-(trifluoromethyl)phenyl)cyclo-propyl)-1,5-dihydro-4H-pyrazolo[3,4-d]pyrimidin-4-one]	≥ 7.70
N[C@@H]1c2ccccc2CC12CCN(c1nc3[nH]nc(C4(c5cnnc(Cl)c5)CC4)c3c(=O)[nH]1)CC2 [Example 70, (S)-6-(1-amino-1,3-dihydrospiro[indene-2,4′-piperidin]-1′-yl)-3-(1-(6-chloropyridazin-4-yl)cyclopropyl)-1,5-dihydro-4H-pyrazolo[3,4-d]pyrimidin-4-one]	≥ 7.70
CC1(C)CC(c2n[nH]c3nc(N4CCC5(CC4)Cc4ccccc4[C@H]5N)[nH]c(=O)c23)c2cccc(F)c21 (stereo partly drawn) [Example 109, 6-((S)-1-amino-1,3-dihydrospiro[indene-2,4′-piperidin]-1′-yl)-3-(4-fluoro-3,3-dimethyl-2,3-dihydro-1H-inden-1-yl)-1,5-dihydro-4H-pyrazolo[3,4-d]pyrimidin-4-one]	≥ 7.70
Cn1ccc2c(C3(c4n[nH]c5nc(N6CCC7(CC6)Cc6ccccc6[C@H]7N)[nH]c(=O)c45)CC3)cccc21 [Example 81, (S)-6-(1-amino-1,3-dihydrospiro[indene-2,4′-piperidin]-1′-yl)-3-(1-(1-methyl-1H-indol-4-yl)cyclopropyl)-1,5-dihydro-4H-pyrazolo[3,4-d]pyrimidin-4-one]	≥ 7.70
